According to patent publication US9826732B2, “Composition for cryopreservation of cells and tissues” (Bio Verde Inc., priority 2008, dated 2017):

Key:
Type in all cases: cell-based
[1] = system: CD34-expressing hematopoietic cells; test: Cryopreservation of umbilical cord blood, CD34 flow cytometry; conditions: human cord blood; −80° C. for three months
Method: Umbilical cord blood was collected from human umbilical cord by a 7 mL plastic vacuum blood sampling tube (Venoject II, Terumo Corporation) loaded with 10.5 mg anticoagulant (EDTA2Na). […] Then the cord blood was quickly thawed in a water bath at 37° C., and a sample of cord blood without dilution was analyzed with respect to the expression of the surface marker, CD34, by flow cytometry. The number of hematopoietic cells expressing CD34 was measured according to the standard method described in the literature (A. Higuchi et al., J. Biomed. Mater. Res., 68A, the fixed method of 34-42 (2004)). Thus the number of CD34-expressing hematopoietic cells was estimated according to the protocol in the manual (International Hemotherapeutics and Transplantation Society ISHAGE guideline) using Stem-Kit (Beckman-Coulter Corporation). Even after the three months of cryopreservation, number of counted cells of the CD34-expressing hematopoietic cells was estimated to be about 70% of that on the first day when the cord blood was added with the PLL succinic anhydride 63% was added by 7.5%; whereas, when the cord blood in a state of 10% DMSO solution was cryopreserved, number of the CD34-expressing hematopoietic cells was estimated to be about 20% of that on the first day.

L929 cells [2] = test: Toxicity test, MTT assay, 50% cell growth inhibition; conditions: 48 hours culture with polymer
Method: Toxicity test was performed on L929 cells. The cells having been suspended in a culture medium of DMEM with 10% fetal bovine serum are seeded in 96-well plates (1.0×10^3 cells/well) and cultured at 37° C. for 72 hours. Thereafter, each of ε-poly-L-lysine and the modified poly-lysines having been added with varying concentrations of succinic anhydride was added to the culture media to attain final concentrations of 0-10%.

[3] = system: Rat mesenchymal stem cells (RMSC); test: Cryopreservation of rat mesenchymal stem cells, survival after thawing
L929 cells [4] = test: Thawed L929 cells seeded directly without dilution or washing, cultured 24 hours; conditions: thawed liquid seeded directly, no dilution nor washing, FIG. 3-1, 3-2
Method: Meanwhile, the cryopreservation liquid containing the L929 cells was frozen, thawed and directly seeded in 12-well plates and cultured at 37° C. for 24 hours. In detail, the cells were cryopreserved in the 7.5% solution of the PLL succinic anhydride 63% and thawed as in EXAMPLE 2, except that no dilution nor washing was made for the liquid or the cells, and the liquid containing the cells was directly transferred to the plates for culturing.

## C[S+](C)[O-] [DMSO, dimethylsulfoxide]
[1]
  number of CD34-expressing hematopoietic cells relative to that on the first day: about 20%
L929 cells [2]
  IC50 (50% Cell-growth-inhibition Concentration): 2.035 ± 0.017%
[3]; 6 hours after thawing
  survival rate, 6 hours later: 88.3 ± 1.1
[3]; 24 hours after thawing
  survival rate, 24 hours later: 92.8 ± 3.5
[3]; immediately after thawing
  survival rate, Immediately: 92.3 ± 4.3
L929 cells [4]
  observation of cells after 24 hours culture: apparently round in shape and dead
